Where two headings read alike, the source gives them in different places.
Columns and labels:
Assay type in all cases: binding, sheep
Antibody to Immunogen I = conditions: Cross-reactants at 100 ng/ml; Antibody to Immunogen I
Procedure: (§1) An aqueous solution of each immunogen was formulated with Freund's Complete Adjuvant (FCA) to form an emulsion consisting of 2mg/ml* immunogen in 50% (v/v) FCA. Three sheep were immunised with this emulsion (1° immunisation), 0.25ml being intramuscularly injected at each of four sites in the flank of each animal. Subsequent immunizations (boosts) contained 1mg/ml* immunogen. All boosts were emulsified in 50% (v/v) Freund's Incomplete Adjuvant (FIA) and were administered in the same manner as the 1° immunisation, at monthly intervals. Blood sampling took place 7 to 14 days after each boost. *The general procedure for immunogen administration is outlined above, however, it was necessary to deviate from this protocol in some cases, due to reduced immunogen concentrations (Immunogens II, IV, VII and VIII) and/or amount available (Immunogen VIII). Any deviations from the protocol described are outlined in Table 1A below and highlighted in bold. Table 1A: Amount and volume of immunogens administered for primary and subsequent boosts
(§2) The wells of an enhanced binding 96 well polystyrene microtiter plate were coated with IgG fraction of antiserum raised to Immunogen I or II, diluted in 10mM Tris, pH8.5 (125µl/well). The appropriate antibody coating dilution was determined using standard ELISA checkerboard techniques. The plate was incubated overnight at 4°C, washed 4 times over 10 minutes with Tris buffered saline containing Tween 20 (TBST) and tapped dry. Standard solutions (JWH-018 for Immunogens I and II) were applied at 0, 0.625, 1.25, 2.5, 5, 10, 20 and 40ng/ml and 50µl of each was added to the appropriate wells. 75µl of conjugate (appropriate hapten-HRP) diluted in Tris buffer (pH 7.2) containing EDTA, D-mannitol, sucrose, thimerosal and BSA, was added to each of the wells. The appropriate dilution of conjugate was also determined using standard ELISA checkerboard techniques. The plate was incubated at 25°C for 1 hour. Excess unbound conjugate was removed by washing 6 times over a 10 minute period with TBST. 125µl of tetramethylbenzidine (TMB) substrate solution was added to each well of the plate that was then incubated for 20 minutes in the dark at room temperature. The reaction was terminated by addition of 125µl 0.2M H2SO4 to each well. The absorbance was then measured at 450nm using a microtiter plate reader. The data are inputted to a computer program called 'KC Junior'. It is a 4 parameter fit curve and allow the calculatation of concentrations between the standard runs. This program is used to calculate the IC50s by dividing the 0ng/ml OD value by 2 and obtaining the concentration value from the curve for this OD.
In a similar manner to that described above, the wells of a 96-well microtiter plate were coated with the IgG fraction of the antiserum raised to Immunogens I or II. Standard solutions (JWH-018 for Immunogen I and II) were applied at 0, 0.625, 1.25, 2.5, 5, 10, 20 and 40ng/ml and conjugate was employed as detection reagent.
(§3) The data set our in Tables 3 and 4 are generated using antibodies raised against the indicated Immunogens in a competitive binding assay with the indicated tracers, using the indicated standards: Table 2
(§4) A450 = absorbance at 450nm B = absorbance at 450nm at xng/ml standard concentration B0 = absorbance at 450nm at 0ng/ml standard concentration IC50 = standard concentration which produces 50% B/B0
(§5) In order to determine the specificity of the competitive ELISAs, standard solutions of a range of structurally similar synthetic cannabinoids and their metabolites were prepared in TBST. Using the calibration curves generated and employing a single level of cross reactants, these were used to determine the cross-reactivity of each immunoassay with these substances. […]

Antibody to Immunogen II = test: Competitive ELISA (Example 36), antibody RS1833B12, tracer ESC4555/LK959, standard JWH-018; conditions: Cross-reactants at 100 ng/ml; Antibody to Immunogen II
Procedure: as §1
as §2, with “The” for “The wells of an enhanced binding 96 well polystyrene microtiter plate were coated with IgG fraction of antiserum raised to Immunogen I or II, diluted in 10mM Tris, pH8.5 (125µl/well). The”, “Standard solutions (JWH-018 for Immunogens I and II) were applied at 0, 0.625, 1.25, 2.5, 5, 10, 20 and 40ng/ml and 50µl of each was added to the appropriate wells.” left out, “runs.” for “runs. This program is used to calculate the IC50s by dividing the 0ng/ml OD value by 2 and obtaining the concentration value from the curve for this OD.”
In a similar manner to that described above, the wells of a 96-well microtiter plate were coated with the IgG fraction of the antiserum raised to Immunogens I or II.
as §3
Using the calibration curves generated and employing a single level of cross reactants, these were used to determine the cross-reactivity of each immunoassay with these substances. These are the standards used for the IC50 and cross-reactivity data generation • Immunogen I - JWH-018 • Immunogen II - JWH-018 • Immunogen IV - JWH-018 • Immunogen VII - JWH-015 • Immunogen VIII - JWH-018 Table 4: Cross reactivity of the competitive ELISAs for synthetic cannabinoids and their metabolites

Antibody to Immunogen IV = conditions: Cross-reactants at 100 ng/ml; Antibody to Immunogen IV
Procedure: as §1, §2
(§6) In a similar manner to that described above, the wells of a 96-well microtiter plate were coated with the IgG fraction of the antiserum raised to Immunogens IV, VII or VIII. Standard solutions (JWH-018 for Immunogens IV and VIII, JWH-015 for Immunogen VII) were prepared in TBST at 0, 1.25, 2.5, 5, 10, 20, 40 and 80ng/ml and conjugate was employed as detection reagent.
as §3, §4, §5

[1] = test system: Antibody to Immunogen VIII; conditions: Cross-reactants at 100 ng/ml; Antibody to Immunogen VIII
Procedure: as §1, §2, §6, §3, §4, §5

[2] = test system: Antibody to Immunogen VII
Procedure: as §1, §2, §6, §3, §4, §5

[3] = Cross-reactants at 100 ng/ml, Antibody to Immunogen VII

Row | Structure (SMILES) | %B/B0 (Antibody to Immunogen I) | %B/B0 (Antibody to Immunogen II) | %B/B0 (Antibody to Immunogen IV) | %B/B0 [1] | %B/B0 [2, 3] | %B/B0 ([2]; JWH-015 standard 1.25 ng/ml) | %B/B0 ([2]; JWH-015 standard 2.5 ng/ml) | %B/B0 ([2]; JWH-015 standard 5 ng/ml) | %B/B0 ([2]; JWH-015 standard 10 ng/ml) | %B/B0 ([2]; JWH-015 standard 20 ng/ml) | %B/B0 ([2]; JWH-015 standard 40 ng/ml) | %B/B0 ([2]; JWH-015 standard 80 ng/ml) | IC50 ([2]; Table 3c standard curve, standard concentration which produces 50% B/B0)
1 | CC(F)CCCn1cc(C(=O)c2cccc3ccccc23)c2ccccc21 (single isomer, unassigned) [AM-2201 N-(4-fluoropentyl) isomer] | 3.45% | 14.60% | 5.72% | 15.00% | 52.70% |  |  |  |  |  |  |  | 
2 | CC(C)C(C)n1cc(C(=O)c2cccc3ccccc23)c2ccccc21 (single isomer, unassigned) [JWH 018 N-(1,2-dimethylpropyl) isomer] | 6.60% | 71.33% | 87.11% | 67.71% | 62.29% |  |  |  |  |  |  |  | 
3 | CCCC(C)n1cc(C(=O)c2cccc3ccccc23)c2ccccc21 (single isomer, unassigned) [JWH-018 N-(1-methylbutyl) isomer] | 12.42% | 51.92% | 73.49% | 63.22% | 67.71% |  |  |  |  |  |  |  | 
4 | CCC(C)Cn1cc(C(=O)c2cccc3ccccc23)c2ccccc21 (single isomer, unassigned) [JWH-018 N-(2-methylbutyl) isomer (JWH-073 2-methylbutyl homologue), JWH-018 N-(2-methylbutyl) isomer] | 3.61% | 28.60% | 29.88% | 85.16% | 58.84% |  |  |  |  |  |  |  | 
5 | CS(=O)(=O)O.Cc1c(C(=O)c2cccc3ccccc23)c2cccc3c2n1[C@H](CN1CCOCC1)CO3 [(+)WIN 55212-2 (mesylate), (+)WIN 55212-2] | 17.00% | 83.87% | 92.76% | 107.12% | 24.08% |  |  |  |  |  |  |  | 
6 | O=C(c1cccc(I)c1)c1cn(CCCCCF)c2ccccc12 [AM-694 3-iodo isomer] | 31.37% | 48.58% | 37.20% | 12.71% | 89.49% |  |  |  |  |  |  |  | 
7 | O=C(c1ccccc1I)c1cn(CCCCCF)c2ccccc12 [AM-694] | 12.17% | 36.18% | 11.30% | 11.92% | 75.66% |  |  |  |  |  |  |  | 
8 | CN1CCCCC1Cn1cc(C(=O)c2cccc3ccccc23)c2ccccc21 (stereo not drawn) [AM-1220] | 4.45% | 77.46% | 86.93% | 106.65% | 49.71% |  |  |  |  |  |  |  | 
9 | O=C(c1cccc2ccccc12)c1cn(CCCC(O)CF)c2ccccc12 (stereo not drawn) [AM-2201 N-(4-hydroxypentyl) metabolite] | 3.80% | 46.55% | 43.62% | 36.41% | 52.75% |  |  |  |  |  |  |  | 
10 | O=C(c1cccc2ccccc12)c1cn(CCCCCF)c2ccccc12 [AM-2201] | 3.72% | 11.72% | 6.20% | 16.74% | 55.28% |  |  |  |  |  |  |  | 
11 | CN1CCCCC1Cn1cc(C(=O)c2ccccc2I)c2ccccc21 (stereo not drawn) [AM-2233] | 16.97% | 86.43% | 92.10% | 91.25% | 72.46% |  |  |  |  |  |  |  | 
12 | CC(C)CCn1cc(C(=O)c2cccc3ccccc23)c2ccccc21 [JWH 018 N-(3-methylbutyl) isomer (JWH-073 3-methylbutyl homologue), JWH 018 N-(3-methylbutyl) isomer] | 3.16% | 30.38% | 12.75% | 53.29% | 48.81% |  |  |  |  |  |  |  | 
13 | CCCCCCn1cc(C(=O)c2cccc3ccccc23)c2cc(O)ccc21 [JWH 019 5-hydroxyindole metabolite] | 19.81% | 17.34% | 93.84% | 101.57% | 87.58% |  |  |  |  |  |  |  | 
14 | CCCCn1cc(C(=O)c2c(C)ccc3ccccc23)c2ccccc21 [JWH 073 2-methylnaphthyl analog] | 21.84% | 43.34% | 34.47% | 78.79% | 76.74% |  |  |  |  |  |  |  | 
15 | CCCCCn1cc(C(=O)c2c(C)ccc3ccccc23)c2ccccc21 [JWH 122 2-methylnaphthyl isomer] | 33.35% | 27.14% | 26.13% | 61.74% | 85.37% |  |  |  |  |  |  |  | 
16 | CCCCCn1cc(C(=O)c2cccc3cc(C)ccc23)c2ccccc21 [JWH 122 6-methylnaphthyl isomer] | 12.55% | 39.17% | 8.12% | 20.46% | 86.66% |  |  |  |  |  |  |  | 
17 | CCCCCn1cc(C(=O)c2cccc3ccc(C)cc23)c2ccccc21 [JWH 122 7-methylnaphthyl isomer] | 36.46% | 38.28% | 13.48% | 38.48% | 92.44% |  |  |  |  |  |  |  | 
18 | CCCCCn1c(C)c(C(=O)c2cccc3ccccc23)c2ccccc21 [JWH-007] | 32.96% | 66.06% | 60.63% | 61.76% | 27.77% |  |  |  |  |  |  |  | 
19 | CCCn1c(C)c(C(=O)c2cccc3ccccc23)c2ccccc21 [JWH-015] | 14.67% | 65.67% | 93.20% | 92.27% | 17.84% | 75% | 62% | 54% | 43% | 34% | 26% | 20% | 5.910 ng/mL
20 | CCCCn1c(C)c(C(=O)c2cccc3ccccc23)c2ccccc21 [JWH-016] | 20.71% | 68.73% | 91.14% | 75.24% | 19.31% |  |  |  |  |  |  |  | 
